Key:
Candida albicans [1] = experiment: Intracellular cleavage exhibited in Candida albicans ATCC 26278; assay type: functional
Candida albicans [2] = experiment: Rate of transport of compound in Candida albicans ATCC 26278; assay type: functional

Compound | Cleavage rate (Candida albicans [1]) [µmol/min/mg] | Transport rate (Candida albicans [2]) [µmol/min/mg]
CCC[C@H](NC(=O)[C@@H](N)CCSC)C(=O)N[C@@H](CNC(=O)CI)C(=O)O | 3.8 | 
CCC[C@H](NC(=O)[C@H](N)CCSC)C(=O)N[C@@H](CNC(=O)CI)C(=O)O |  | 0.5
CSCCC(N)C(=O)NC(CNC(=O)CI)C(=O)O (centres undefined) | 3.1 | 1.9
